Laboratory results as given in US6372894B1, “Cycolalkylated B-glucoside” (Nihon Shokuhin Kako Co., Ltd., priority 1999, dated 2002).

Tests used:
[1] = tested on: pNP-β-Glc activity of rose petal crude enzyme solution; test: Inhibition test for rose crude enzyme; format: biochemical, Rosa gybrida CV. Wendy
Description: (§1) β-Glucosidase inhibition test was performed as follows. 10 mM p-nitrophenyl-p-glucoside (100 μl, abbreviated as pNP-β-Glc hereinafter), 1 M sodium acetate buffer (pH 5.0, 50 μl), pure-water, and 100 mM inhibitor (10 μl) were taken into a short test tube so that the mixture should have a total volume of 800 μl, and preincubated at 40° C. for 5 minutes. After the incubation, the obtained mixture was added with 50 μl of enzyme solution diluted to a suitable concentration, and allowed to react at 40° C. After 10 minutes, the enzyme was inactivated by adding 500 μl of 1 M sodium carbonate to the obtained reaction mixture, and the absorbance at 405 nm was measured and used for calculation of the amount of free p-nitrophenol. As the inhibitor, cyclopropylmethyl-β-glucoside (CPAM-β-Glc), cyclopentyl-β-glucoside (CPE-β-Glc), and cyclopentylmethyl-β-glucoside (CPEM-β-Glc) all prepared by the methods of Examples 1 and 2 were used. As the β-glucosidase, chromatographically purified preparations derived from Aspergillus niger, Trichoderma viride, and Almond (all from SIGMA) were used.
Only petals (about 70 g) were collected from about ten marketed roses (variety; Rosa gybrida CV. Wendy), added with acetone (500 ml) cooled to −20° C., and pulverized by a homogenizer while cooled with dry ice. The obtained pulverized mixture was filtered through a Buchner funnel put with a No. 2 filter paper sheet, and sufficiently washed with acetone at −20° C. The obtained filtrate was dried in a desiccator under reduced pressure (room temperature, 3 hours) to obtain 6 g of crude enzyme powder. This powder was added to 100 mM sodium phosphate buffer (pH 7.0, 120 ml) and stirred at 4° C. for 3 hours, and the insoluble matter was removed by centrifugation. The filtrate was subjected to ultrafiltration utilizing an ultrafiltration membrane PM-10 (Amicon) to finally afford 15 ml of crude enzyme solution.
In the same manner as in Example 3, the inhibition activity of the CPEM-β-Glc obtained in Example 2 for the pNP-β-Glc activity of the above crude enzyme solution was measured. […]

[2] = molecular target: β-glucosidase derived from Trichoderma viride (Trichoderma viride, UniProt Q6UJY0); test: β-Glucosidase inhibition test (pNP-β-Glc), T. viride enzyme; format: biochemical
Description: as §1

[3] = tested on: chrysanthemum cut flower; test: Aromatic substance formation inhibition effect in cut flowers, organoleptic test (chrysanthemum); format: in vivo; details: 0.13% (w/v, 5 mM) aqueous solution, after one day, all of ten expert panelists, versus water
Description: (§2) A 0.13% (w/v, 5 mM) aqueous solution of the CPEM-β-Glc obtained in Example 2 was prepared. The obtained aqueous solution (300 ml) was introduced into an Erlenmeyer flask, and lily, chrysanthemum, and gypsophila were put into it one for each. On the other hand, as control, the flowers were similarly put into water without the CPEM-β-Glc. After 1, 2 and 4 days, organoleptic test was performed by ten expert panelists as for the aroma emitted from these cut flowers.

[4] = tested on: lily cut flower; test: Aromatic substance formation inhibition effect in cut flowers, organoleptic test (lily); format: in vivo; details: 0.13% (w/v, 5 mM) aqueous solution, after one day, all of ten expert panelists, versus water
Description: as §2

[5] = tested on: lily, chrysanthemum, and gypsophila cut flowers; test: Freshness of cut flowers in the aroma test; format: in vivo; details: 0.13% (w/v, 5 mM) aqueous solution
Description: as §2

[6] = tested on: β-glucosidase derived from Almond; test: β-Glucosidase inhibition test (pNP-β-Glc), almond enzyme; format: biochemical; details: inhibitor concentration of 1.25 mM
Description: as §1

[7] = tested on: gypsophila cut flower; test: Aromatic substance formation inhibition effect in cut flowers, organoleptic test (gypsophila); format: in vivo; details: 0.13% (w/v, 5 mM) aqueous solution, after one day, all of ten expert panelists, versus water
Description: as §2

[8] = molecular target: β-glucosidase derived from Aspergillus niger (Aspergillus niger, UniProt A2RAL4); test: β-Glucosidase inhibition test (pNP-β-Glc), A. niger enzyme; format: biochemical
Description: as §1

For OCC1OC(OCC2CCCC2)C(O)C(O)C1O (stereo not drawn) [CPEM-β-Glc, cyclopentylmethyl-β-glucoside], the inhibition activity ([1]; at 3 mM) was “about 50%”, the inhibition activity ([1]; at 4 mM) was “about 70%” and the inhibition activity ([1]; at 5 mM) was “about 90%”. The “inhibition of β-glucosidase, in words” value ([2]; T. viride enzyme, inhibitor concentration of 1.25 mM) was “no inhibition”, the IC50 ([2]; T. viride β-glucosidase, concentration varied from 0 to 5 mM, read-out: 50% inhibition concentration) was 11.5 mM and the “aroma emitted from cut flowers, organoleptic test” value (shortened to “aroma emitted from cut flowers”) [3] was “distinctly reduced”. For the same compound, the “aroma emitted from cut flowers” value [4] was “distinctly reduced”, the “freshness of the cut flowers, added versus not added” value [5] was “No difference in freshness” and the “inhibition of β-glucosidase, in words” value [6] was “strongly inhibited”. For the same compound, the “aroma emitted from cut flowers” value [7] was “distinctly reduced”, the “inhibition of β-glucosidase, in words” value ([8]; A. niger enzyme, inhibitor concentration of 1.25 mM) was “relatively weak inhibition” and the IC50 ([8]; A. niger β-glucosidase, concentration varied from 0 to 5 mM, read-out: 50% inhibition concentration) was 12.6 mM.
